Test results from patent US10112929B2, “Lactams as inhibitors of rock” (BRISTOL-MYERS SQUIBB COMPANY, priority 2015, dated 2018).

target: ROCK2 (Homo sapiens (Human), UniProt O75116); assay: biochemical
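Note: rho kinase enzyme reaction halted with EDTA, phospho- and non-phospho peptide separated for read-out, kinase activity inhibition derived across a dose-response series, DMSO under 2%.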

Chain of ROCK2 (O75116 whole entry, species assumed): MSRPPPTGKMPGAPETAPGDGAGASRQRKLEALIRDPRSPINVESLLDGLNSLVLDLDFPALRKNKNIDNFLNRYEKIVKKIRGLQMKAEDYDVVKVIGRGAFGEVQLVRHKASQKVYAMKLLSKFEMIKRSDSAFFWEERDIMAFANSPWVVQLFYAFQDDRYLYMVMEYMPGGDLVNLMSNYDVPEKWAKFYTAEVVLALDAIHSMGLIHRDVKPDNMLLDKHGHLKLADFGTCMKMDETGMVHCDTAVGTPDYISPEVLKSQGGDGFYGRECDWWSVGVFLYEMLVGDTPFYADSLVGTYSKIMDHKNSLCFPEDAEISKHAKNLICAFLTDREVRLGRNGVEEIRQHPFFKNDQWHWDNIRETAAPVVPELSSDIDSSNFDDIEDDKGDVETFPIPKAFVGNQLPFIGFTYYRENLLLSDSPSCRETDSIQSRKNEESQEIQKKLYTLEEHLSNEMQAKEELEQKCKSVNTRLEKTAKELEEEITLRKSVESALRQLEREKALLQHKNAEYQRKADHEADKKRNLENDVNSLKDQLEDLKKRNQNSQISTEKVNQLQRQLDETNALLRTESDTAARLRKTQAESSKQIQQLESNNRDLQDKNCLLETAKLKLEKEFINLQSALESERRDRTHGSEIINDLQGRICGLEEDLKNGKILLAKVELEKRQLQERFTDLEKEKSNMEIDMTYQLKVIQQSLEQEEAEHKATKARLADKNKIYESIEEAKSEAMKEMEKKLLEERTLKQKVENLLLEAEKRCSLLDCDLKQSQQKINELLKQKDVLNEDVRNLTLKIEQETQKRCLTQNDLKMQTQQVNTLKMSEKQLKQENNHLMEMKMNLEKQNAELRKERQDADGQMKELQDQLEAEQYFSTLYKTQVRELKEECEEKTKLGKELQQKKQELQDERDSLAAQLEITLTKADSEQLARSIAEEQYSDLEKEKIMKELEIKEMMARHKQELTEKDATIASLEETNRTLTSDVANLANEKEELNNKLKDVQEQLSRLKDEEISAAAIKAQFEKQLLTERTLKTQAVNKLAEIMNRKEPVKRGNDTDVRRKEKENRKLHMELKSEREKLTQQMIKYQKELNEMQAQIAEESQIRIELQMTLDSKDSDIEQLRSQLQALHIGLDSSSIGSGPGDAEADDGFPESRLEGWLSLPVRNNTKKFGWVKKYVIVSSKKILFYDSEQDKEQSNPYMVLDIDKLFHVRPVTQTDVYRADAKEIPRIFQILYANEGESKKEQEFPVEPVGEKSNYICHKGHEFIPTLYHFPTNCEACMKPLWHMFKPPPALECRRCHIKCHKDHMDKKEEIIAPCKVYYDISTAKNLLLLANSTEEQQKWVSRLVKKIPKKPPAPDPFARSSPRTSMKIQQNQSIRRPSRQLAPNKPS

IC50	Compound
10 to 100 nM	O=C1C(Nc2cccc(OCC3CC3)c2)CCN1c1ccc(-c2cn[nH]c2)cc1 (single isomer, unassigned) [Example 233, 1-(4-(1H-pyrazol-4-yl)phenyl)-3-((3-(cyclopropylmethoxy)phenyl)amino) pyrrolidin-2-one]
10 to 100 nM	N#Cc1ccnc(NC2CCN(c3ccc(-c4cn[nH]c4)cc3)C2=O)c1 (stereo not drawn) [Example 116, 2-((1-(4-(1H-Pyrazol-4-yl)phenyl)-2-oxopyrrolidin-3-yl)amino)isonicotinonitrile]
100 to 2200 nM	COc1cc(NC2CCN(c3ccc(-c4cn[nH]c4)c(OC)c3)C2=O)cc(OC)c1 (single isomer, unassigned) [Example 139, 3-((3,5-dimethoxyphenyl)amino)-1-(3-methoxy-4-(1H-pyrazol-4-yl)phenyl) pyrrolidin-2-one]
10 to 100 nM	COc1ccc(F)c(NC2CCN(c3ccc(-c4cn[nH]c4)cn3)C2=O)c1 (single isomer, unassigned) [Example 303, 1-(5-(1H-pyrazol-4-yl)pyridin-2-yl)-3-((2-fluoro-5-methoxyphenyl)amino)pyrrolidin-2-one]
100 to 2200 nM	COc1ccc(NC2CCN(c3ccc(-c4cn[nH]c4)cc3)C2=O)c(F)c1 (single isomer, unassigned) [Example 19, 1-(4-(1H-pyrazol-4-yl)phenyl)-3-((2-fluoro-4-methoxyphenyl)amino)pyrrolidin-2-one]
100 to 2200 nM	COc1cccc(CC2CCN(c3ccc(-c4cn[nH]c4)cc3)C2=O)c1 (stereo not drawn) [Example 93, 1-(4-(1H-pyrazol-4-yl)phenyl)-3-(3-methoxybenzyl)pyrrolidin-2-one]
< 10 nM	CCOc1cccc(NC2CCN(c3ccc(-c4cn[nH]c4)c(OC)c3)C2=O)c1 (single isomer, unassigned) [Example 250, 3-((3-ethoxyphenyl)amino)-1-(3-methoxy-4-(1H-pyrazol-4-yl)phenyl)pyrrolidin-2-one]
< 10 nM	CCc1nc(N2CCC(Nc3ccc(F)c(OC)c3)C2=O)ccc1-c1cn[nH]c1 (single isomer, unassigned) [Example 317, 1-(6-ethyl-5-(1H-pyrazol-4-yl)pyridin-2-yl)-3-((4-fluoro-3-methoxyphenyl)amino) pyrrolidin-2-one]
100 to 2200 nM	COc1cccc(NC2CCN(c3ncc(-c4cn[nH]c4)cc3F)C2=O)c1 (single isomer, unassigned) [Example 357, 1-(3-fluoro-5-(1H-pyrazol-4-yl)pyridin-2-yl)-3-((3-methoxyphenyl)amino) pyrrolidin-2-one]
100 to 2200 nM	COc1cccc(C(=O)NC2CCN(c3ccc(-c4cn[nH]c4)cc3)C2=O)c1 (stereo not drawn) [Example 65, N-(1-(4-(1H-Pyrazol-4-yl)phenyl)-2-oxopyrrolidin-3-yl)-3-methoxybenzamide]
100 to 2200 nM	COc1cc(F)cc(OC2CCN(c3ccc(-c4cn[nH]c4)cc3)C2=O)c1 (stereo not drawn) [Example 112, 1-(4-(1H-pyrazol-4-yl)phenyl)-3-(3-fluoro-5-methoxyphenoxy)pyrrolidin-2-one]
10 to 100 nM	O=C1C(c2ccccc2F)CCN1c1ccc(-c2cn[nH]c2)cc1 (stereo not drawn) [Example 104, 1-(4-(1H-pyrazol-4-yl)phenyl)-3-(2-fluorophenyl)pyrrolidin-2-one]
10 to 100 nM	O=C1C(Nc2cncnc2)CCN1c1ccc(-c2cn[nH]c2)cc1 (racemic) [Example 227, 1-(4-(1H-pyrazol-4-yl)phenyl)-3-(pyrimidin-5-ylamino)pyrrolidin-2-one]
< 10 nM	O=C1C(Nc2cccc(F)c2F)CCN1c1ccc(-c2cn[nH]c2)cc1 (single isomer, unassigned) [Example 23, 1-(4-(1H-pyrazol-4-yl)phenyl)-3-((2,3-difluorophenyl)amino)pyrrolidin-2-one]
< 10 nM	COc1cccc(NC2CCN(c3ccc(-c4ccncc4F)c(OC)n3)C2=O)c1 (stereo not drawn) [Example 118, 1-(3′-Fluoro-2-methoxy-[3,4′-bipyridin]-6-yl)-3-((3-methoxyphenyl)amino) pyrrolidin-2-one]
< 10 nM	O=C1C(Nc2cccc(OC(F)F)c2)CCN1c1ccc(-c2cn[nH]c2)cc1 (stereo not drawn) [Example 7, 1-(4-(1H-pyrazol-4-yl)phenyl)-3-((3-(difluoromethoxy)phenyl)amino)pyrrolidin-2-one]
10 to 100 nM	O=C1C(Nc2ccc(F)cc2F)CCN1c1ccc(-c2cn[nH]c2)cc1 (single isomer, unassigned) [Example 25, 1-(4-(1H-pyrazol-4-yl)phenyl)-3-((2,4-difluorophenyl)amino)pyrrolidin-2-one]
10 to 100 nM	O=C1[C@H](N2CCCc3ccccc32)CCN1c1ccc(-c2cn[nH]c2)cc1 [Example 394, (R)-1-(4-(1H-pyrazol-4-yl)phenyl)-3-(3,4-dihydroquinolin-1(2H)-yl)pyrrolidin-2-one]
< 10 nM	COc1cc(N2CCC(Nc3cccc(F)c3OC)C2=O)ccc1-c1cn[nH]c1 (single isomer, unassigned) [Example 151, 3-((3-fluoro-2-methoxyphenyl)amino)-1-(3-methoxy-4-(1H-pyrazol-4-yl)phenyl) pyrrolidin-2-one]
10 to 100 nM	Cc1nc(N2CCC(Nc3cccc(OC(F)F)c3)C2=O)ccc1-c1cn[nH]c1 (single isomer, unassigned) [Example 201, 3-((3-(difluoromethoxy)phenyl)amino)-1-(6-methyl-5-(1H-pyrazol-4-yl)pyridin-2-yl)pyrrolidin-2-one]
10 to 100 nM	O=C1[C@H](N2CCc3ccccc32)CCN1c1ccc(-c2cn[nH]c2)cc1 [Example 393, (R)-1-(4-(1H-pyrazol-4-yl)phenyl)-3-(indolin-1-yl)pyrrolidin-2-one]
< 10 nM	O=C1C(Nc2ccccc2)CCN1c1ccc(-c2cn[nH]c2)c(F)c1 (single isomer, unassigned) [Example 43, 1-(3-fluoro-4-(1H-pyrazol-4-yl)phenyl)-3-(phenylamino)pyrrolidin-2-one]
10 to 100 nM	O=C1C(Nc2cccc(OCC3CC3)c2)CCN1c1ccc(-c2cn[nH]c2)cn1 (single isomer, unassigned) [Example 319, 1-(5-(1H-pyrazol-4-yl)pyridin-2-yl)-3-((3-(cyclopropylmethoxy)phenyl)amino) pyrrolidin-2-one]
100 to 2200 nM	COc1ccc(NC2CCN(c3ccc(-c4cn[nH]c4)cc3F)C2=O)cc1F (single isomer, unassigned) [Example 344, 1-(2-fluoro-4-(1H-pyrazol-4-yl)phenyl)-3-((3-fluoro-4-methoxyphenyl)amino) pyrrolidin-2-one]
100 to 2200 nM	COc1cc(N2CCC(Nc3cccc(F)c3OC)C2=O)ccc1-c1cn[nH]c1 (single isomer, unassigned) [Example 150, 3-((3-fluoro-2-methoxyphenyl)amino)-1-(3-methoxy-4-(1H-pyrazol-4-yl)phenyl) pyrrolidin-2-one]
100 to 2200 nM	N#Cc1cccc(CC2CCN(c3ccc(-c4cn[nH]c4)cc3)C2=O)c1 (stereo not drawn) [Example 97, 3-((1-(4-(1H-pyrazol-4-yl)phenyl)-2-oxopyrrolidin-3-yl)methyl)benzonitrile]
10 to 100 nM	COc1nc(N2CCC(Nc3ccc(F)c(OCC4CC4)c3)C2=O)ccc1-c1cn[nH]c1 (single isomer, unassigned) [Example 217, 3-((3-(cyclopropylmethoxy)-4-fluorophenyl)amino)-1-(6-methoxy-5-(1H-pyrazol-4-yl)pyridin-2-yl)pyrrolidin-2-one]
